Experimental data: publication PMC8213153 (PLoS ONE, 2021)
Converted amounts (≈) assume the structure as drawn. Read-outs that look alike come from different tables or passages of the source.

Experiments:
Type in all cases: cell-based
TNF-α = TNF-α level of virus-infected Vero cells (ELISA)
Experimental: (§1) To enable measurement of IL-6, IL-10 and TNF-α levels, the culture medium of the treated cells was collected in sterile micro-tubes and centrifuged at 3,500 rpm for 20 minutes. The supernatants were carefully collected and diluted with aquadest at a 1:5 volume ratio and vortexed until homogenous. The samples were deposited onto a well-plate, added to ELISA reagents (Bioassay Technology Laboratory, Shanghai, China), and incubated at 37°C for 60 minutes. Reagent substrate solution was then added to the well and incubated for ten minutes at 37°C. The samples were measured for antigen concentration using the optical density (OD) plotted into the standard curves of IL-6, IL-10, and TNF-α.

IL-10 = IL-10 level of virus-infected Vero cells (ELISA)
Experimental: as §1

[1] = Cytotoxicity (MTT) assay of single and dual combinatory drugs; conditions: human; for viability at 48 h, 0.2 μg/mL / viability at 48 h, 2 μg/mL / viability at 48 h, 10 μg/mL / viability at 48 h, 100 μg/mL / viability at 48 h, 400 μg/mL: read-out: Cell Viability (%)
Experimental: Each tablet containing drugs was triturated and mixed until homogenous. Approximately 50 mg equivalent mass of drugs were weighed and added to dimethyl sulfoxide in order to solubilize the drugs. The suspension was sonicated in a water bath for 15 minutes before being added to Rosewell Park Memorial Institute (RPMI) media, sonicated again and vortexed to mix it until homogenous. The suspension was then filtered through a polycarbonate membrane with a pore size of 0.45 μm and then a pore size of 0.22 μm under aseptic conditions. The filtrate was mixed with 10% foetal bovine serum and penicillin streptomycin before being vortexed to produce a homogenous mixture to be used as a stock solution. The samples were prepared by diluting the stock solution of each drug with RPMI complete media at an appropriate level of dilution to produce a determined concentration. The dual combinatory drugs mixtures were prepared by mixing appropriate amounts of two drug stock solutions in order to produce a final concentration at the required level. The combinatory drugs were evaluated at both constant and non-constant ratios to evaluate their effects on the cytotoxicity, including; antagonistic, synergistic, or additive. A constant ratio of the mixture was achieved by adding drug solutions at the same ratio, thereby increasing each drug concentration, to produce dose escalation. In contrast, at a non-constant ratio, a fixed determined concentration of drug was added to increased doses of other drug solution in order to produce different levels of drug concentration.
The cytotoxic concentration (CC50) of drugs was performed by means of MTT assay at the Stem Cell Research and Development Center, Universitas Airlangga using human umbilical cord mesenchymal stem cells which had been obtained from human placenta tissue as approved by the Ethical Committee of Universitas Airlangga Hospital (Certificate number 101/KEH/2019 dated January 10, 2019). The cells were prepared as the primary cell culture and used for the cytotoxicity assay because of their sensitivity to chemicals. Cells were seeded into 96-well microplates at a concentration of 1x10^3 cells/well in 100 μL Alpha Minimum Essentials Medium (α-MEM, Gibco, USA) supplemented with 10% foetal bovine serum, 1% penicillin-streptomycin and 1% amphotericin-B. The plates were then incubated in a CO2 incubator at 37°C with 5% CO2 for 24 hours, at which point, the supernatant was replaced with α-MEM containing drugs at each concentration and incubated for a further 48 hours. Approximately 25μL of 3-(4,5-Dimethylthiazol-2-yl)-2,5-diphenyl tetrazolium-bromide (MTT) reagent at a concentration of 5mg/mL was subsequently added to each well and incubated for four hours at 37°C with 5% CO2. Purple formazan crystals were formed and observed under an inverted microscope. Dimethyl sulfoxide was added to each well with the complete solubilisation of formazan crystals subsequently being observed. The greater the number of formazan crystals formed, the lower the toxicity of the samples which were read for optical density of formazan using a multi reader at a measurement wavelength of 595 nm (Promega Glomax, USA). The CC50 value was analyzed by CompuSyn software (the ComboSyn Inc., accessed from www.combosyn.com).
In this study, the cytotoxicity assay was evaluated for single and dual combinatory drugs during a period of 48 hours of drug incubation. This assay was intended to evaluate the toxicity of dual combinatory drugs on normal cells. The combination ratios were calculated taking into consideration the usual therapeutic doses and plasma peak concentrations of the drugs. To determine this cytotoxicity, the drugs were mixed at both constant and non-constant ratios.

IL-6 = IL-6 level of virus-infected Vero cells (ELISA)
Experimental: as §1

SARS-CoV-2 virus = assay: microbe, parasite or virus in culture; conditions: for IC50: Severe acute respiratory syndrome coronavirus 2, Vero
[2] = FAVIPIRAVIR-AZITHROMYCIN series
[3] = HYDROXYCHLOROQUINE-FAVIPIRAVIR series

NC(=O)c1nc(F)c[nH]c1=O [FAVI, Favipiravir]
TNF-α (TNF-α; 10 μg/mL, 24-h): 3.09 ± 1.23 pg/mL
TNF-α (TNF-α; 10 μg/mL, 48-h): 416.51 ± 1.28 pg/mL
TNF-α (TNF-α; 10 μg/mL, 72-h): 711.37 ± 0.70 pg/mL
TNF-α (TNF-α; 15 μg/mL, 24-h): 98.18 ± 1.55 pg/mL
TNF-α (TNF-α; 15 μg/mL, 48-h): 467.47 ± 3.11 pg/mL
TNF-α (TNF-α; 15 μg/mL, 72-h): 725.48 ± 3.51 pg/mL
TNF-α (TNF-α; 10 ppm, 24h): ↘↘ (10 ppm; 24h)
IL-10 (IL-10; 10 μg/mL, 24-h): 31.38 ± 1.80 pg/mL
IL-10 (IL-10; 10 μg/mL, 48-h): 125.32 ± 1.57 pg/mL
IL-10 (IL-10; 10 μg/mL, 72-h): 465.82 ± 0.57 pg/mL
IL-10 (IL-10; 15 μg/mL, 24-h): 27.97 ± 0.29 pg/mL
IL-10 (IL-10; 15 μg/mL, 48-h): 100.89 ± 1.28 pg/mL
IL-10 (IL-10; 15 μg/mL, 72-h): 411.24 ± 0.24 pg/mL
IL-10 (IL-10; 10, 15 μg/mL, 48, 72h): ↗↗ (10, 15 μg/mL; 48, 72h)
CC50 at 48 h ([1]; CC50): > 400 µg/mL
viability at 48 h, 0.2 μg/mL [1, 2]: 105%
viability at 48 h, 2 μg/mL [1, 2]: 104%
viability at 48 h, 10 μg/mL [1, 2]: 109%
viability at 48 h, 100 μg/mL [1, 2]: 110%
viability at 48 h, 400 μg/mL [1, 2]: 126%
viability at 48 h, 0.2 μg/mL [1, 3]: 92.5%
viability at 48 h, 2 μg/mL [1, 3]: 71.9%
viability at 48 h, 10 μg/mL [1, 3]: 72.4%
viability at 48 h, 100 μg/mL [1, 3]: 66.2%
viability at 48 h, 400 μg/mL [1, 3]: 66.8%
IL-6 (IL-6; 10 μg/mL, 24-h): 14.09 ± 1.53 ng/L
IL-6 (IL-6; 10 μg/mL, 48-h): 37.28 ± 0.37 ng/L
IL-6 (IL-6; 10 μg/mL, 72-h): 60.21 ± 0.49 ng/L
IL-6 (IL-6; 15 μg/mL, 24-h): 22.18 ± 1.09 ng/L
IL-6 (IL-6; 15 μg/mL, 48-h): 39.75 ± 1.67 ng/L
IL-6 (IL-6; 15 μg/mL, 72-h): 68.61 ± 1.04 ng/L
IL-6 (IL-6; to 100 μg/mL, 48h): ↘↘ (to 100 μg/mL; 48h)
Virus Titer (SARS-CoV-2 virus; 10 μg/mL, 48-h): 37.37 viral protein fg/mL
Virus Titer (SARS-CoV-2 virus; 15 μg/mL, 24-h): 38.87 viral protein fg/mL
Drug concentration that produced an undetected virus copy number (SARS-CoV-2 virus; MoI 0.04, at 24, 48, and/or 72 hours' incubation): 37.5 µg/mL
IC50 (SARS-CoV-2 virus; 24h, MoI 0.04): 9.6 µg/mL (≈ 61.1 µM)
IC50 (SARS-CoV-2 virus; 48h, MoI 0.04): 18.6 µg/mL (≈ 118 µM)
IC50 (SARS-CoV-2 virus; 72h, MoI 0.04): < 10 µg/mL
Results (virus detection) (SARS-CoV-2 virus; at the drug concentration of the same line of Table 4, MoI 0.04): 24, 48, 72h virus still detected with decreasing number
